Key:
[1] = Stability in human liver microsomes assessed as parent compound remaining; type: ADME, Microsome
[2] = biological target: T1, Interleukin-1 receptor-associated kinase 4 (Homo sapiens, UniProt Q9NWZ3); assay: Inhibition of IRAK4 (unknown origin) using FL-IPTSPITTTYFFFKKK peptide and ATP as substrate incubated for 60 mins by fluorescence based caliper assay
T1 sequence (Q9NWZ3 whole entry): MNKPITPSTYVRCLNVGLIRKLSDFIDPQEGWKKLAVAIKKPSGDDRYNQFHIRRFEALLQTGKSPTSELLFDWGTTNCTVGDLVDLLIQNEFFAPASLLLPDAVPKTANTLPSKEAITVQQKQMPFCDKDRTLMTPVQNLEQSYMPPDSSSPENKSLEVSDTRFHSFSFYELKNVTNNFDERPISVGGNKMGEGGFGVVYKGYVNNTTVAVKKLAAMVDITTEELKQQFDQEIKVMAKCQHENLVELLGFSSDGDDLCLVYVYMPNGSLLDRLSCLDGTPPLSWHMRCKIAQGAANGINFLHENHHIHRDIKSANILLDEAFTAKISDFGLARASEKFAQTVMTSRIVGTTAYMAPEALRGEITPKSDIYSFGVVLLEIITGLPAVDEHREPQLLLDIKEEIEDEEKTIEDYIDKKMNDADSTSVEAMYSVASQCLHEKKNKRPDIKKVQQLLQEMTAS

[3] = Stability in mouse liver microsomes assessed as parent compound remaining measured after 10 mins; type: ADME, Microsome; settings: read-out: Stability
[4] = biological target: T1, Interleukin-1 receptor-associated kinase 4; assay: Inhibition of IRAK4 in human PBMC assessed as inhibition of LTA-induced IL-6 production preincubated for 30 mins followed by LTA-stimulation and measured after 5 hrs by ELISA; type: cell-based
[5] = Drug uptake in LTA-treated BALB/c mouse serum at 50 mg/kg, po treated 30 mins prior to LTA-stimulation and measured after 90 mins by LC-MS analysis; type: ADME, organism-based; settings: read-out: Drug uptake
[6] = Oral bioavailability in mouse at 10 mg/kg administered via gavage measured up to 24 hrs by LC-MS analysis; type: ADME, organism-based; settings: in vivo
[7] = biological target: T1, Interleukin-1 receptor-associated kinase 4; assay: Inhibition of IRAK4 in human whole blood assessed as inhibition of LTA-induced IL-6 production preincubated for 30 mins followed by LTA-stimulation and measured after 5 hrs by ELISA; type: tissue-based
[8] = Clearance in mouse at 2 mg/kg, iv administered as infusion or 10 mg/kg, po via gavage measured up to 24 hrs by LC-MS analysis; type: ADME, organism-based; settings: in vivo
[9] = Permeability across apical to basolateral side in human Caco2 cells; settings: Caco-2
[10] = Drug uptake in LTA-treated BALB/c mouse serum at 10 mg/kg, po treated 30 mins prior to LTA-stimulation and measured after 90 mins by LC-MS analysis; type: ADME, organism-based; settings: read-out: Drug uptake
[11] = biological target: T2, Interleukin-1 receptor-associated kinase 4 (Mus musculus) (UniProt Q8R4K2); assay: In vivo Inhibition of IRAK4 in BALB/c mouse assessed as suppression of TLR2-mediated LTA-induced IL-6 level in serum at 10 mg/kg, po treated 30 mins prior to LTA-stimulation and measured after 90 mins by ELISA relative to control; type: functional, organism-based
T2 sequence (whole entry): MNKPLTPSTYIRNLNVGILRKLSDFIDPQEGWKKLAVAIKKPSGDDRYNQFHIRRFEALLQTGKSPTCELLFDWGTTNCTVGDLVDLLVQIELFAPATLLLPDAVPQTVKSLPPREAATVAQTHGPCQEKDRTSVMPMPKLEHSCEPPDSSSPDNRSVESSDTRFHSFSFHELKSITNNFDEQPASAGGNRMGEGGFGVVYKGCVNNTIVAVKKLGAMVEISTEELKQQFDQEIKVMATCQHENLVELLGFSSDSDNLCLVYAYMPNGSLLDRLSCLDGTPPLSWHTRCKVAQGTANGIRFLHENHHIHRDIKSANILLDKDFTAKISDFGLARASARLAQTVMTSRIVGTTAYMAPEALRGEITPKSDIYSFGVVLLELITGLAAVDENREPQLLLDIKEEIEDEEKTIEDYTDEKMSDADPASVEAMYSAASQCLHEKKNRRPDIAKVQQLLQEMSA

[12] = AUC in mouse at 2 mg/kg, iv administered as infusion measured up to 24 hrs by LC-MS analysis; type: ADME, organism-based; parameters: time < 24 hr, dose 2 mg/kg, route intravenous; settings: in vivo
Homo sapiens [13] = species: Homo sapiens; assay: Selectivity index, ratio of IC50 for N-terminal His6-tagged human full length recombinant LCK expressed in baculovirus infected Sf21 cells to IC50 for IRAK4 (unknown origin)
[14] = biological target: T3, Interleukin-1 receptor-associated kinase 4 (Mus musculus, UniProt Q8R4K2); assay: Inhibition of IRAK4 in mouse whole blood; type: tissue-based
T3 sequence (Q8R4K2 whole entry): T2 sequence (whole entry)

[15] = Volume of distribution at steady state in mouse at 2 mg/kg, iv administered as infusion or 10 mg/kg, po via gavage measured up to 24 hrs by LC-MS analysis; type: ADME, organism-based; settings: in vivo, read-out: Vdss
[16] = biological target: T2, Interleukin-1 receptor-associated kinase 4 (Mus musculus); assay: In vivo Inhibition of IRAK4 in BALB/c mouse assessed as suppression of TLR2-mediated LTA-induced IL-6 level in serum at 50 mg/kg, po treated 30 mins prior to LTA-stimulation and measured after 90 mins by ELISA relative to control; type: functional, organism-based
[17] = biological target: T2, Interleukin-1 receptor-associated kinase 4 (Mus musculus); assay: In vivo Inhibition of IRAK4 in BALB/c mouse assessed as suppression of TLR2-mediated LTA-induced IL-6 level in serum at 25 mg/kg, po treated 30 mins prior to LTA-stimulation and measured after 90 mins by ELISA relative to control; type: functional, organism-based
[18] = Time during which drug concentration exceeds IC50 for IRAK4 in mouse whole blood in mouse at 10 mg/kg, po; type: ADME, organism-based; settings: in vivo
[19] = AUC in mouse at 10 mg/kg, po via gavage measured up to 24 hrs by LC-MS analysis; type: ADME, organism-based; parameters: time < 24 hr, dose 10 mg/kg, route oral; settings: in vivo
[20] = Half life in mouse at 2 mg/kg, iv administered as infusion or 10 mg/kg, po via gavage measured up to 24 hrs by LC-MS analysis; type: ADME, organism-based; settings: in vivo
[21] = Drug uptake in LTA-treated BALB/c mouse serum at 25 mg/kg, po treated 30 mins prior to LTA-stimulation and measured after 90 mins by LC-MS analysis; type: ADME, organism-based; settings: read-out: Drug uptake
[22] = Clearance in mouse at 2 mg/kg, iv administered as infusion or 3 mg/kg, po via gavage measured up to 24 hrs by LC-MS analysis; type: ADME, organism-based; settings: in vivo
[23] = AUC in mouse at 3 mg/kg, po via gavage measured up to 24 hrs by LC-MS analysis; type: ADME, organism-based; parameters: dose 3 mg/kg, time < 24 hr, route oral; settings: in vivo
[24] = Half life in mouse at 2 mg/kg, iv administered as infusion or 3 mg/kg, po via gavage measured up to 24 hrs by LC-MS analysis; type: ADME, organism-based; settings: in vivo
Homo sapiens [25] = species: Homo sapiens; assay: Selectivity index, ratio of IC50 for recombinant N-terminal GST-tagged human cKit (544 to end residues) expressed in baculovirus infected Sf21 cells to IC50 for IRAK4 (unknown origin)
[26] = Volume of distribution at steady state in mouse at 2 mg/kg, iv administered as infusion or 3 mg/kg, po via gavage measured up to 24 hrs by LC-MS analysis; type: ADME, organism-based; settings: in vivo, read-out: Vdss
[27] = Oral bioavailability in mouse at 3 mg/kg administered via gavage measured up to 24 hrs by LC-MS analysis; type: ADME, organism-based; settings: in vivo
Mus musculus [28] = assay: Protection against imiquimod-induced psoriasis in C57BL/6 mouse assessed as inhibition of skin erythema level at 3 mg/kg, po dosed via gavage once daily and measured on day 6 relative to control; type: functional; settings: C57BL/6, po, 144 h
Mus musculus [29] = assay: Protection against imiquimod-induced psoriasis in C57BL/6 mouse assessed as inhibition of skin scaling at 3 mg/kg, po dosed via gavage once daily and measured on day 6 relative to control; type: functional; settings: C57BL/6, po, 144 h
Cytochrome P450 3A4 = Cytochrome P450 3A4 (Homo sapiens, UniProt P08684); assay: Inhibition of CYP3A4 (unknown origin); type: ADME
Sequence of Cytochrome P450 3A4 (P08684 whole entry): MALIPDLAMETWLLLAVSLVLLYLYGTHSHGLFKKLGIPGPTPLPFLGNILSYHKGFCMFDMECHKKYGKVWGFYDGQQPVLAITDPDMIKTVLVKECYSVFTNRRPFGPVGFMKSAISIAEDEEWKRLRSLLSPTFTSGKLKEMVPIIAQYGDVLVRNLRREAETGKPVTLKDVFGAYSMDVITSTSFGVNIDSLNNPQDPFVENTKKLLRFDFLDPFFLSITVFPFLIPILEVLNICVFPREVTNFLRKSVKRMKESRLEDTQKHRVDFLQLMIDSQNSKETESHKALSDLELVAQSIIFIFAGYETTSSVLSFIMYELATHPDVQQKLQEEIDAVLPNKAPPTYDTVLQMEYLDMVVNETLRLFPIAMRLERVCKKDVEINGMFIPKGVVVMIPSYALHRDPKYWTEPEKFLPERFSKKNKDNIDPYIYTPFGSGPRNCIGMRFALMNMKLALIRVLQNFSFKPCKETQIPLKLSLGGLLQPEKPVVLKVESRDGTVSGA

| Compound | Stability [1] | IC50 [2] | remaining at 10 min [3] | IC50 [4] | IC50 [7] | Papp A→B [9] | Ratio IC50 (Homo sapiens [13]) | other results |
| --- | --- | --- | --- | --- | --- | --- | --- | --- |
| CC(C)Nc1cc(Nc2ccc3nonc3c2)ncc1C(=O)NC[C@@H](F)C(C)(C)O | 93% | 8.7 nM | 89% | 640 nM | 210 nM | 3.8 ×10⁻⁶ cm/s | 190 | clearance [22]: 14 mL/min/kg; AUC at 24 h [23]: 4.6 µM·h; AUC at 24 h [12]: 4.7 µM·h; half-life [24]: 3.6 h; Ratio IC50 (Homo sapiens [25]): 420; Vd [26]: 3.2 L/kg; bioavailability [27]: 65% |
| CNC(=O)c1cnc(Nc2ccc3ncsc3c2)cc1N[C@@H](c1ccccc1)[C@H](O)CO | 90% | – | 22% | – | – | < 1.5 ×10⁻⁶ cm/s | – | – |
| CNC(=O)c1cnc(Nc2ccc3ncsc3c2)cc1NC(C)C | – | 21 nM | – | 4500 nM | – | 21 ×10⁻⁶ cm/s | 28 | – |
| CNC(=O)c1cnc(Nc2ccc3ncsc3c2)cc1N[C@H](CO)Cc1ccccc1 | 46% | – | 29% | – | – | < 1.5 ×10⁻⁶ cm/s | – | – |
| CC(C)Nc1cc(Nc2ccc3nsnc3c2)ncc1C(=O)NC[C@@H](F)C(C)(C)O | 74% | – | 80% | 320 nM | 1160 nM | – | 93 | Ratio IC50 (Homo sapiens [25]): > 15000 |
| CC(C)Nc1cc(Nc2ccn3nccc3c2)ncc1C(=O)NC[C@@H](F)C(C)(C)O | 78% | – | 85% | 410 nM | 650 nM | – | > 380 | Ratio IC50 (Homo sapiens [25]): 240 |
| Cc1nc2ccc(Nc3cc(NC(C)C)c(C(=O)NC[C@@H](F)C(C)(C)O)cn3)cc2s1 | 92% | 8 nM | 78% | 1700 nM | 12000 nM | – | 3500 | Ratio IC50 (Homo sapiens [25]): 6200 |
| C[C@@H]1C[C@H]2[C@@H]3CCC4=CC(=O)C=C[C@]4(C)[C@@]3(F)[C@@H](O)C[C@]2(C)[C@@]1(O)C(=O)CO [DEXAMETHASONE] | – | – | – | – | – | – | – | inhibition in vivo at 3 mg/kg (Mus musculus [28]): 37%; inhibition in vivo at 3 mg/kg (Mus musculus [29]): 45% |
| CC(C)Nc1cc(Nc2ccc3ncsc3c2)ncc1C(=O)NCCc1ccc(S(N)(=O)=O)cc1 | 17% | 5.7 nM | 38% | 1200 nM | – | < 1.5 ×10⁻⁶ cm/s | 280 | IC50 (Cytochrome P450 3A4): 900 nM |
| CC(C)Nc1cc(Nc2ccc3ncsc3c2)ncc1C(=O)NCC(F)(F)C(C)(C)O | 71% | – | 61% | 570 nM | 2800 nM | – | 320 | – |

Continued, in another order:

| Stability [1] | IC50 [2] | remaining at 10 min [3] | IC50 [4] | IC50 [7] | Papp A→B [9] | Compound | Ratio IC50 (Homo sapiens [13]) | other results |
| --- | --- | --- | --- | --- | --- | --- | --- | --- |
| 55% | 7 nM | 31% | – | – | – | CCCCNC(=O)c1cnc(Nc2ccc3ncsc3c2)cc1NC(C)C | – | – |
| 90% | 2.4 nM | 89% | 230 nM | 810 nM | 8.1 ×10⁻⁶ cm/s | CC(C)(O)[C@H](F)CNC(=O)c1cnc(Nc2ccc3ncsc3c2)cc1NC1CC1 | 170 | concentration at 1.5 h [5]: 9.6 µM; bioavailability [6]: 40%; clearance [8]: 47 mL/min/kg; concentration at 1.5 h [10]: 0.41 µM; inhibition [11]: 50%; AUC at 24 h [12]: 1.6 µM·h; IC50 [14]: 240 nM; Vd [15]: 2.1 L/kg; inhibition [16]: 99%; inhibition [17]: 95%; T>IC50 [18]: <= 3 hr; AUC at 24 h [19]: 3.3 µM·h; half-life [20]: 2.2 h; concentration at 1.5 h [21]: 4.5 µM |
| 65% | – | 99% | 290 nM | 900 nM | – | CC(C)(O)CCNC(=O)c1cnc(Nc2ccc3ncsc3c2)cc1NC1CC1 | 200 | – |
| 74% | 15 nM | 45% | – | – | – | CCNC(=O)c1cnc(Nc2ccc3ncsc3c2)cc1NC(C)C | – | – |
| 92% | 2.4 nM | 86% | 480 nM | 2000 nM | – | CC(C)Nc1cc(Nc2ccc3ncsc3c2)ncc1C(=O)NC[C@@H](F)C(C)(C)O | 270 | – |
| – | – | – | 730 nM | – | – | CC(C)(O)[C@@H](F)CNC(=O)c1cnc(Nc2ccc3ncsc3c2)cc1NC1CC1 | 110 | – |
| – | 19 nM | – | 2900 nM | – | – | CC(C)Nc1cc(Nc2ccc3ncsc3c2)ncc1C(=O)NC[C@@H](C)C(C)(C)O | – | – |
| 79% | – | 68% | 290 nM | 1100 nM | – | CC(C)Nc1cc(Nc2ccc3ncsc3c2)ncc1C(=O)NCCC(C)(C)O | 104 | – |
| 84% | 24 nM | 87% | 6900 nM | – | – | CC(C)Nc1cc(Nc2ccc3ncsc3c2)ncc1C(=O)NCCCO | 16 | – |
| 52% | 12 nM | 32% | – | – | – | CCCNC(=O)c1cnc(Nc2ccc3ncsc3c2)cc1NC(C)C | – | – |

— ChEMBL document CHEMBL4622963, “Optimization of Nicotinamides as Potent and Selective IRAK4 Inhibitors with Efficacy in a Murine Model of Psoriasis” (ACS Med Chem Lett, 2020)
